Tests used:
Experiment in all cases: relative viability (nuclei count vs DMSO), 5 days (fraction); higher = more cells survive
NCI-H1355 = test system: NCI-H1355
Method in brief: (§1)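 Dosing by pin tool came one day after lung cancer cell lines were seeded in 1536-well plates, using either one drug or a fixed anchor-drug dose plus five library-drug doses (not always all listed) in √10 steps. After 5 days, nuclei were counted on 4× images. Relative viability is treated-well nuclei count divided by vehicle-well nuclei count, and values are medians of duplicate plates.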

HCC-78 = test system: HCC-78
Method in brief: as §1

NCI-H2342 = test system: NCI-H2342
Method in brief: as §1

LCLC-97TM1 = test system: LCLC-97TM1
Method in brief: as §1

NCI-H1975 = test system: NCI-H1975
Method in brief: as §1

SK-MES-1 = test system: SK-MES-1
Method in brief: as §1

PC-3 [JPC-3] = test system: PC-3 [JPC-3]
Method in brief: as §1

LC-2-ad = test system: LC-2-ad
Method in brief: as §1

NCI-H358 = test system: NCI-H358
Method in brief: as §1

NCI-H650 = test system: NCI-H650
Method in brief: as §1

NCI-H838 = test system: NCI-H838
Method in brief: as §1

LK-2 = test system: LK-2
Method in brief: as §1

BEN = test system: BEN
Method in brief: as §1

LU99A = test system: LU99A
Method in brief: as §1

LXF-289 = test system: LXF-289
Method in brief: as §1

NCI-H1651 = test system: NCI-H1651
Method in brief: as §1

NCI-H1944 = test system: NCI-H1944
Method in brief: as §1

NCI-H2087 = test system: NCI-H2087
Method in brief: as §1

ChaGo-K-1 = test system: ChaGo-K-1
Method in brief: as §1

NCI-H661 = test system: NCI-H661
Method in brief: as §1

NCI-H1666 = test system: NCI-H1666
Method in brief: as §1

## O=c1cc(-c2cccc3c2Sc2ccccc2S3)oc(N2CCOCC2)c1 + CC(=O)c1c(C)c2cnc(Nc3ccc(N4CCNCC4)cn3)nc2n(C2CCCC2)c1=O [Palbociclib] (partner 0.5 µM)
NCI-H1355; first compound 0.08 µM
  relative viability: 0.396
NCI-H1355; first compound 0.253 µM
  relative viability: 0.428
NCI-H1355; first compound 0.8 µM
  relative viability: 0.371
NCI-H1355; first compound 2.53 µM
  relative viability: 0.401
NCI-H1355; first compound 8 µM
  relative viability: 0.264
HCC-78; first compound 0.08 µM
  relative viability: 0.506
HCC-78; first compound 0.253 µM
  relative viability: 0.458
HCC-78; first compound 0.8 µM
  relative viability: 0.427
HCC-78; first compound 2.53 µM
  relative viability: 0.417
HCC-78; first compound 8 µM
  relative viability: 0.487
NCI-H2342; first compound 0.08 µM
  relative viability: 0.52
NCI-H2342; first compound 0.253 µM
  relative viability: 0.548
NCI-H2342; first compound 0.8 µM
  relative viability: 0.515
NCI-H2342; first compound 2.53 µM
  relative viability: 0.522
NCI-H2342; first compound 8 µM
  relative viability: 0.575
LCLC-97TM1; first compound 0.08 µM
  relative viability: 0.247
LCLC-97TM1; first compound 0.253 µM
  relative viability: 0.26
LCLC-97TM1; first compound 0.8 µM
  relative viability: 0.245
LCLC-97TM1; first compound 2.53 µM
  relative viability: 0.228
LCLC-97TM1; first compound 8 µM
  relative viability: 0.241
NCI-H1975; first compound 0.08 µM
  relative viability: 0.623
NCI-H1975; first compound 0.253 µM
  relative viability: 0.863
NCI-H1975; first compound 0.8 µM
  relative viability: 0.465
NCI-H1975; first compound 2.53 µM
  relative viability: 0.564
NCI-H1975; first compound 8 µM
  relative viability: 0.744
SK-MES-1; first compound 0.08 µM
  relative viability: 0.311
SK-MES-1; first compound 0.253 µM
  relative viability: 0.321
SK-MES-1; first compound 0.8 µM
  relative viability: 0.313
SK-MES-1; first compound 2.53 µM
  relative viability: 0.294
SK-MES-1; first compound 8 µM
  relative viability: 0.286
PC-3 [JPC-3]; first compound 0.08 µM
  relative viability: 0.471
PC-3 [JPC-3]; first compound 0.253 µM
  relative viability: 0.54
PC-3 [JPC-3]; first compound 0.8 µM
  relative viability: 0.559
PC-3 [JPC-3]; first compound 2.53 µM
  relative viability: 0.482
PC-3 [JPC-3]; first compound 8 µM
  relative viability: 0.584
LC-2-ad; first compound 0.08 µM
  relative viability: 0.513
LC-2-ad; first compound 0.253 µM
  relative viability: 0.51
LC-2-ad; first compound 0.8 µM
  relative viability: 0.469
LC-2-ad; first compound 2.53 µM
  relative viability: 0.502
LC-2-ad; first compound 8 µM
  relative viability: 0.425
NCI-H358; first compound 0.08 µM
  relative viability: 0.135
NCI-H358; first compound 0.253 µM
  relative viability: 0.144
NCI-H358; first compound 0.8 µM
  relative viability: 0.13
NCI-H358; first compound 2.53 µM
  relative viability: 0.134
NCI-H358; first compound 8 µM
  relative viability: 0.152
NCI-H650; first compound 0.08 µM
  relative viability: 0.346
NCI-H650; first compound 0.253 µM
  relative viability: 0.323
NCI-H650; first compound 0.8 µM
  relative viability: 0.372
NCI-H650; first compound 2.53 µM
  relative viability: 0.278
NCI-H650; first compound 8 µM
  relative viability: 0.36
NCI-H838; first compound 0.08 µM
  relative viability: 0.187
NCI-H838; first compound 0.253 µM
  relative viability: 0.265
NCI-H838; first compound 0.8 µM
  relative viability: 0.202
NCI-H838; first compound 2.53 µM
  relative viability: 0.212
NCI-H838; first compound 8 µM
  relative viability: 0.222
LK-2; first compound 0.08 µM
  relative viability: 0.515
LK-2; first compound 0.253 µM
  relative viability: 0.8
LK-2; first compound 0.8 µM
  relative viability: 0.637
LK-2; first compound 2.53 µM
  relative viability: 0.767
LK-2; first compound 8 µM
  relative viability: 0.881
BEN; first compound 0.08 µM
  relative viability: 0.464
BEN; first compound 0.253 µM
  relative viability: 0.447
BEN; first compound 0.8 µM
  relative viability: 0.477
BEN; first compound 2.53 µM
  relative viability: 0.452
BEN; first compound 8 µM
  relative viability: 0.499
LU99A; first compound 0.08 µM
  relative viability: 0.413
LU99A; first compound 0.253 µM
  relative viability: 0.417
LU99A; first compound 0.8 µM
  relative viability: 0.491
LU99A; first compound 2.53 µM
  relative viability: 0.463
LU99A; first compound 8 µM
  relative viability: 0.449
LXF-289; first compound 0.08 µM
  relative viability: 0.61
LXF-289; first compound 0.253 µM
  relative viability: 0.603
LXF-289; first compound 0.8 µM
  relative viability: 0.609
LXF-289; first compound 2.53 µM
  relative viability: 0.619
LXF-289; first compound 8 µM
  relative viability: 0.642
NCI-H1651; first compound 0.08 µM
  relative viability: 0.523
NCI-H1651; first compound 0.253 µM
  relative viability: 0.537
NCI-H1651; first compound 0.8 µM
  relative viability: 0.524
NCI-H1651; first compound 2.53 µM
  relative viability: 0.509
NCI-H1651; first compound 8 µM
  relative viability: 0.537
NCI-H1944; first compound 0.08 µM
  relative viability: 0.313
NCI-H1944; first compound 0.253 µM
  relative viability: 0.329
NCI-H1944; first compound 0.8 µM
  relative viability: 0.302
NCI-H1944; first compound 2.53 µM
  relative viability: 0.335
NCI-H1944; first compound 8 µM
  relative viability: 0.318
NCI-H2087; first compound 0.08 µM
  relative viability: 0.23
NCI-H2087; first compound 0.253 µM
  relative viability: 0.234
NCI-H2087; first compound 0.8 µM
  relative viability: 0.203
NCI-H2087; first compound 2.53 µM
  relative viability: 0.222
NCI-H2087; first compound 8 µM
  relative viability: 0.201
ChaGo-K-1; first compound 0.08 µM
  relative viability: 0.942
ChaGo-K-1; first compound 0.253 µM
  relative viability: 1.12
ChaGo-K-1; first compound 0.8 µM
  relative viability: 0.842
ChaGo-K-1; first compound 2.53 µM
  relative viability: 0.899
ChaGo-K-1; first compound 8 µM
  relative viability: 1.09
NCI-H661; first compound 0.08 µM
  relative viability: 0.416
NCI-H661; first compound 0.253 µM
  relative viability: 0.438
NCI-H661; first compound 0.8 µM
  relative viability: 0.393
NCI-H661; first compound 2.53 µM
  relative viability: 0.394
NCI-H661; first compound 8 µM
  relative viability: 0.379
NCI-H1666; first compound 0.08 µM
  relative viability: 0.638
NCI-H1666; first compound 0.253 µM
  relative viability: 0.673
NCI-H1666; first compound 0.8 µM
  relative viability: 0.679
NCI-H1666; first compound 2.53 µM
  relative viability: 0.659
NCI-H1666; first compound 8 µM
  relative viability: 0.601

Reference: the supplement of paper PMC10307832
